Measurements taken from patent US20140004458A1, “MAGENTA TONER” (CANON KABUSHIKI KAISHA, priority 2011, published 2014).

Assays:
[1] = evaluation of lightness and saturation of image sample (L*a*b* chromaticity); type: physicochemical; settings: toner using the compound, in words
Description: Image samples were formed using the resulting toners. The lightness and saturation of the samples were evaluated. To compare image characteristics, an image output test was made using a modified apparatus of LBP-5300 (manufactured by CANON KABUSHIKI KAISHA) as an image forming apparatus. The modification was performed in such a manner that a developing blade in a process cartridge was replaced with a stainless blade having a thickness of […] and that a blade bias of −200 V against a developing bias that was applied to a developing roller serving as a toner support was applicable.
With respect to each of the resulting image samples, chromaticity (L*, a*, b*) in the L*a*b* color system was measured with a reflection densitometer (Model: SpectroLino, manufactured by GretagMacbeth).
In the L*a*b* space, color coordinates indicating the magenta color of the Japan Color 2001 are defined as X (L1, a1, b1). In the L*a*b* space, coordinates of an intersection point of a plane including the L* axis and the coordinates X and the a*b* curve of the image sample obtained by the chromaticity measurement are defined as Y (L2, a2, b2). The a*b* curve is obtained by forming a plurality of image samples having different toner adhesion amounts. The difference Δc (=c2−c1) between a c* value [=c2={(a2^2+b2^2)}^1/2] at the intersection point Y and a c* value [=c1={(a1^2+b1^2)}^1/2] at the coordinates X was calculated. The difference ΔL (=L2−L1) between an L* value (=L2) at the intersection point Y and an L* value (=L1) at the coordinates X was calculated.
The lightness and saturation were evaluated on the basis of the following evaluation criteria.
A: Δc is 0 or more, and ΔL is 0 or more; B: Δc is −5 or more, and ΔL is −5 or more, excluding the case of Class A described above; and C: Δc is less than −5, or ΔL is less than −5.
In the case where Δc was −5 or more and ΔL was −5 or more, the sample was evaluated to have satisfactory lightness and saturation.

[2] = evaluation of lightfastness of image sample (Atlas Weather-Ometer Ci4000); type: physicochemical; settings: toner using the compound, in words; for lightfastness: satisfactory = ΔE less than 10 after 60 hours
Description: The image samples were placed in Atlas Weather-Ometer Ci4000 (from Toyo Seiki Seisaku-sho, Ltd.) and exposed for 60 hours. In this case, measurement conditions were as follows: black panel temperature: 50° C., chamber temperature: 40° C., relative humidity: 70%, and irradiance: 0.39 W/m^2 (340 nm).
The chromaticity (L*, a*, b*) in the L*a*b* color system was measured with the reflection densitometer (Model: SpectroLino, manufactured by GretagMacbeth) before and after the exposure test. The color difference (ΔE) was calculated from the following expression on the basis of measurements of the color characteristics:
Color difference(ΔE)={(a*before test−a*after test)^2+(b*before test−b*after test)^2+(L*before test−L*after test)^2}^1/2
In the case where ΔE was less than 10 after 60 hours, the sample was evaluated to have satisfactory lightfastness.

SMILES: CCN(CC)c1ccc2c(c1)Oc1cc(N(CC)CC)ccc1C21OC(=O)c2ccccc21 [(1)]
- lightness [1]: satisfactory
- balance between the saturation and lightfastness [2]: not provided

SMILES: Cc1ccc(Nc2ccc3c4c(cc(=O)n3C)-c3ccccc3C(=O)c24)cc1 [(2)]
- lightness and saturation [1]: not sufficient
- lightfastness [2]: satisfactory

SMILES: Cc1ccc(/N=N/c2c(O)c(C(=O)O)cc3ccccc23)c(S(=O)(=O)O)c1 [(3)]
- lightness and saturation [1]: not sufficient
- lightfastness [2]: satisfactory
